# Laboratory results from patent EP1561465A2, “Methods of use of fluoroquinolone compounds against bacteria” (LG Life Sciences, Ltd., priority 1999, dated 2001).
# Like-named read-outs stand apart in the source and are kept apart here.
# Columns and labels:
# Format in all cases: cell-based
# [1] = system: Shigella spp.; experiment: MIC by agar dilution (NCCLS M7-A4), 288 enteropathogenic isolates, eight quinolones; conditions: Shigella spp. (n = 21)
# [2] = system: Escherichia coli; experiment: MIC by agar dilution (NCCLS), 322 nosocomial Gram negative isolates, Athens 1998; conditions: Escherichia coli; n = 57 isolates
# [3] = system: Enterobacter spp.; experiment: as above; conditions: Enterobacter, n = 57 isolates
# [4] = system: Streptococcus pneumoniae; experiment: MIC by E-test (broth microdilution for gemifloxacin), 107 pneumococcal carrier isolates, Athens 1998; conditions: E-test; for MIC Range: in µg/mL (unit assumed); for MIC50 / MIC90: Streptococcus pneumoniae; for MIC50: read-out: MIC50; for MIC90: read-out: MIC90
# Protocol: Susceptibility testing was performed by agar dilution or epsilometer method (E-test), as recommended by the NCCLS. […] The susceptibility profiles of the strains were assessed using the Epsilometer method (E-test). The isolates were subdivided into two groups according to their penicillin susceptibility patterns (penicillin-susceptible and penicillin-intermediate.
# [5] = system: Enterococcus faecium; experiment: MIC by agar macrodilution (NCCLS), 373 Gram positive isolates, Athens 1998
# [6] = system: Salmonella spp.; experiment: MIC by agar dilution (NCCLS M7-A4), 288 enteropathogenic isolates, gemifloxacin and 15 other antimicrobials
# [7] = Penicillin-intermediate S. pneumoniae (n = 24)
# [8] = Penicillin-susceptible S. pneumoniae (n = 107)
smiles,measurement,setting,value
"Cc1c(F)c(N2CCNC(C)C2)cc2c1c(=O)c(C(=O)O)cn2C1CC1 (stereo not shown) [Grepafloxacin, grepafloxacin]",% Susceptible,[1],100%
same,MIC50,[1],≤ 0.015 mg/L
same,MIC90,[1],0.03 mg/L
same,MIC Range,[1],≤0.015 to 0.03 mg/L
same,MIC50,[2],0.06 mg/L
same,MIC90,[2],0.25 mg/L
same,MIC50,[3]; read-out: MIC50,0.06 mg/L
same,MIC90,[3]; read-out: MIC90,> 64 mg/L
same,MIC Range,[4]; [7],0.047-0.5
same,MIC Range,[4]; [8],0.047-1
same,MIC50,[4]; [7],0.19 mg/L
same,MIC90,[4]; [7],0.38 mg/L
same,MIC50,[4]; [8],0.19 mg/L
same,MIC90,[4]; [8],0.38 mg/L
same,MIC distribution (µg/ml) 0.03,[5],0
same,MIC distribution (µg/ml) 0.06,[5],0
same,MIC distribution (µg/ml) 0.125,[5],0
same,MIC distribution (µg/ml) 0.25,[5],2
same,MIC distribution (µg/ml) 0.5,[5],4
same,MIC distribution (µg/ml) 1,[5],3
same,MIC distribution (µg/ml) 2,[5],0
same,MIC distribution (µg/ml) 4,[5],0
same,MIC distribution (µg/ml) 8,[5],1
same,MIC distribution (µg/ml) 16,[5],1
same,MIC distribution (µg/ml) ≤0.015,[5],0
same,MIC distribution (µg/ml) ≥32,[5],3
same,MIC50,"[5]; Enterococcus faecium, n = 14 isolates, read-out: MIC50",2 mg/L
same,MIC90,"[5]; Enterococcus faecium, n = 14 isolates, read-out: MIC90",≥ 32 mg/L
same,MIC,"[6]; S. hadar(2), isolates with MICs for ciprofloxacin ≥[…], read-out: MIC",1 mg/L
same,MIC,"[6]; S. newport(1), isolate with MIC for ciprofloxacin ≥[…], read-out: MIC",1 mg/L
same,MIC,"[6]; S. virchow(2), isolates with MICs for ciprofloxacin ≥[…], read-out: MIC",0.25 mg/L
same,Rates of non-susceptible microorganisms,[6]; Salmonella spp.,1%
same,MIC (mg/L) Range,[6]; Salmonella spp. N= 106,0.03 to 2 mg/L
same,MIC,"[6]; Salmonella, S. tshiongwe(1), isolate with MIC for ciprofloxacin ≥[…], read-out: MIC",2 mg/L
same,MIC,"[6]; Salmonella, read-out: MIC (mg/L) 50%, Salmonella spp. N= 106",0.06 mg/L
same,MIC,"[6]; Salmonella, read-out: MIC (mg/L) 90%, Salmonella spp. N= 106",0.25 mg/L
same,MIC,"[6]; Salmonella, the non-susceptible Salmonella spp. isolate(s) (1% of 106), read-out: MIC",2 mg/L
